Patent US6274715A, “Tricyclic erythromycin derivatives” (priority 1997, dated 2001)
In brackets after ≈: the same amount, converted by molar mass.

What was measured:
Format in all cases: cell-based
[1] = tested on: PSEUDOMONAS AERUGINOSA DPHD-2862; assay: In vitro antibacterial activity, MIC, BHI agar dilution; conditions: P. aeruginosa DPHD-2862, unit assumed
ESCHERICHIA COLI JUHL = conditions: E. coli JUHL; BHI agar; unit assumed
ESCHERICHIA COLI SS = assay: In vitro antibacterial activity, MIC, BHI agar dilution; conditions: E. coli SS, unit assumed
ESCHERICHIA COLI H560 = assay: as above; conditions: E. coli H560, unit assumed
STR[…] 508 = assay: as above; conditions: S. agalactiae CMX 508, unit assumed
Method in brief: (§1)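 Agar dilution in BHI: plates inoculated with 1:100 dilutions of organisms (1:10 for Micrococcus and Streptococcus), incubated 20-24 h at 35-37° C, then inspected for the lowest inhibitory concentration against a drug-free growth control.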

EN[…] ATCC 8043 = assay: as above; conditions: E. faecium ATCC 8043, unit assumed
Method in brief: as §1

M[…] ATCC 9341 = assay: as above; conditions: M. luteus ATCC 9341, unit assumed
Method in brief: as §1

M[…] ATCC 4698 = assay: as above; conditions: M. luteus ATCC 4698, unit assumed
Method in brief: as §1

[2] = tested on: PROVIDENCIA STUARTII CMX 640; conditions: P. stuartii CMX 640; BHI agar; unit assumed
ESCHERICHIA COLI DC-2 = assay: In vitro antibacterial activity, MIC, BHI agar dilution; conditions: E. coli DC-2, unit assumed
[3] = tested on: STAPHYLOCOCCUS AUREUS A5177; assay: as above; conditions: S. aureus A5177, unit assumed
[4] = tested on: STAPHYLOCOCCUS AUREUS CMX 553; assay: as above; conditions: S. aureus CMX 553, unit assumed
ESCHERICHIA COLI KNK 437 = conditions: E. coli KNK 437; BHI agar; unit assumed
[5] = tested on: STREPTOCOCCUS BOVIS A-5169; assay: In vitro antibacterial activity, MIC, BHI agar dilution; conditions: S. bovis A-5169, unit assumed
[6] = tested on: MYCOBACTERIUM SMEGMATIS ATCC 114; assay: as above; conditions: M. smegmatis ATCC 114, unit assumed
[7] = tested on: STAPHYLOCOCCUS AUREUS 1775; assay: as above; conditions: S. aureus 1775, unit assumed
[8] = tested on: STAPHYLOCOCCUS AUREUS A-5278; assay: as above; conditions: S. aureus A-5278, unit assumed
[9] = tested on: STAPHYLOCOCCUS AUREUS ATCC 6538P; assay: as above; conditions: S. aureus ATCC 6538P, 35-37° C., 20 to 24 hours, unit assumed
[10] = tested on: PSEUDOMONAS AERUGINOSA 5007; assay: as above; conditions: P. aeruginosa 5007, unit assumed
[11] = tested on: ENTEROBACTER AEROGENES ATCC 13048; assay: as above; conditions: E. aerogenes ATCC 13048, unit assumed
[12] = tested on: KLEBSIELLA PNEUMONIAE ATCC 8045; assay: as above; conditions: K. pneumoniae ATCC 8045, unit assumed
[13] = tested on: STAPHYLOCOCCUS AUREUS CMX 642A; assay: as above; conditions: S. aureus CMX 642A, unit assumed
[14] = tested on: PSEUDOMONAS AERUGINOSA K799/WT; assay: as above; conditions: P. aeruginosa K799/WT, unit assumed
[15] = tested on: STAPHYLOCOCCUS EPIDERMIDIS 3519; conditions: S. epidermidis 3519; BHI agar; unit assumed
CANDIDA ALBICANS CCH 442 = assay: In vitro antibacterial activity, MIC, BHI agar dilution; conditions: C. albicans CCH 442, unit assumed
[16] = tested on: STREPTOCOCCUS PYOGENES PIU 2548; assay: as above; conditions: S. pyogenes PIU 2548, unit assumed
[17] = tested on: STREPTOCOCCUS PYOGENES 930; assay: as above; conditions: S. pyogenes 930, unit assumed
[18] = tested on: PSEUDOMONAS AERUGINOSA DPHD-5263; assay: as above; conditions: P. aeruginosa DPHD-5263, unit assumed
[19] = tested on: STREPTOCOCCUS PYOGENES EES61; assay: as above; conditions: S. pyogenes EES61, unit assumed
[20] = tested on: STAPHYLOCOCCUS AUREUS NCTC10649M; assay: as above; conditions: S. aureus NCTC10649M, unit assumed
[21] = tested on: PSEUDOMONAS AERUGINOSA BMH10; assay: as above; conditions: P. aeruginosa BMH10, unit assumed
PSEUDOMONAS CEPACIA 296I = assay: as above; conditions: P. cepacia 296I, unit assumed
[22] = tested on: PSEUDOMONAS AERUGINOSA K799/61; assay: as above; conditions: P. aeruginosa K799/61, unit assumed

SMILES	MIC [1]	MIC (ESCHERICHIA COLI JUHL)	MIC (ESCHERICHIA COLI SS)	MIC (ESCHERICHIA COLI H560)	MIC (STR[…] 508)	MIC (EN[…] ATCC 8043)	MIC (M[…] ATCC 9341)	MIC (M[…] ATCC 4698)	MIC [2]	MIC (ESCHERICHIA COLI DC-2)	MIC [3]	MIC [4]	MIC (ESCHERICHIA COLI KNK 437)	MIC [5]	MIC [6]	MIC [7]	MIC [8]	MIC [9]	MIC [10]	MIC [11]	further results
CC[C@H]1OC(=O)[C@H](C)C(=O)[C@H](C)[C@@H](O[C@@H]2O[C@H](C)C[C@H](N(C)C)[C@H]2O)[C@](C)(OC)C[C@@H](C)C2=N[C@H](CN3CCN(C)CC3)CN3C(=O)O[C@@]1(C)[C@H]3[C@H]2C [Example 93]	> 100 µg/mL	> 100 µg/mL	0.78 µg/mL (≈ 1.04 µM)	100 µg/mL (≈ 133 µM)	0.1 µg/mL (≈ 0.133 µM)	0.39 µg/mL (≈ 0.52 µM)	0.1 µg/mL (≈ 0.133 µM)	0.78 µg/mL (≈ 1.04 µM)	> 100 µg/mL	> 100 µg/mL	0.78 µg/mL (≈ 1.04 µM)	0.78 µg/mL (≈ 1.04 µM)	> 100 µg/mL	0.02 µg/mL (≈ 0.0267 µM)	12.5 µg/mL (≈ 16.7 µM)	> 100 µg/mL	> 100 µg/mL	0.78 µg/mL (≈ 1.04 µM)	> 100 µg/mL	> 100 µg/mL	MIC [12]: > 100 µg/mL; MIC [13]: 0.78 µg/mL (≈ 1.04 µM); MIC [14]: > 100 µg/mL; MIC [15]: 0.78 µg/mL (≈ 1.04 µM); MIC (CANDIDA ALBICANS CCH 442): > 100 µg/mL; MIC [16]: 3.1 µg/mL (≈ 4.13 µM); MIC [17]: > 100 µg/mL; MIC [18]: > 100 µg/mL; MIC [19]: 0.02 µg/mL (≈ 0.0267 µM); MIC [20]: 0.78 µg/mL (≈ 1.04 µM); MIC [21]: > 100 µg/mL; MIC (PSEUDOMONAS CEPACIA 296I): > 100 µg/mL; MIC [22]: 3.1 µg/mL (≈ 4.13 µM)
CC[C@H]1OC(=O)[C@H](C)C(=O)[C@H](C)[C@@H](O[C@@H]2O[C@H](C)C[C@H](N(C)C)[C@H]2O)[C@](C)(OC)C[C@@H](C)C2=N[C@H](CO)CN3C(=O)O[C@@]1(C)[C@H]3[C@H]2C [Example 52]	> 100 µg/mL	100 µg/mL (≈ 150 µM)	0.39 µg/mL (≈ 0.584 µM)	50 µg/mL (≈ 74.9 µM)	0.05 µg/mL (≈ 0.0749 µM)	0.2 µg/mL (≈ 0.299 µM)	0.1 µg/mL (≈ 0.15 µM)	0.39 µg/mL (≈ 0.584 µM)	> 100 µg/mL	100 µg/mL (≈ 150 µM)	0.78 µg/mL (≈ 1.17 µM)	0.78 µg/mL (≈ 1.17 µM)	100 µg/mL (≈ 150 µM)	0.05 µg/mL (≈ 0.0749 µM)	12.5 µg/mL (≈ 18.7 µM)	> 100 µg/mL	> 100 µg/mL	0.78 µg/mL (≈ 1.17 µM)	> 100 µg/mL	> 100 µg/mL	MIC [12]: > 100 µg/mL; MIC [13]: 0.78 µg/mL (≈ 1.17 µM); MIC [14]: > 100 µg/mL; MIC [15]: 0.78 µg/mL (≈ 1.17 µM); MIC (CANDIDA ALBICANS CCH 442): > 100 µg/mL; MIC [16]: 1.56 µg/mL (≈ 2.34 µM); MIC [17]: > 100 µg/mL; MIC [18]: > 100 µg/mL; MIC [19]: 0.05 µg/mL (≈ 0.0749 µM); MIC [20]: 0.78 µg/mL (≈ 1.17 µM); MIC [21]: > 100 µg/mL; MIC (PSEUDOMONAS CEPACIA 296I): > 100 µg/mL; MIC [22]: 1.56 µg/mL (≈ 2.34 µM)
CC[C@H]1OC(=O)[C@H](C)C(=O)[C@H](C)[C@@H](O[C@@H]2O[C@H](C)C[C@H](N(C)C)[C@H]2O)[C@](C)(OC)C[C@@H](C)C2=NC[C@H](COC(=O)c3ccncc3)N3C(=O)O[C@@]1(C)[C@H]3[C@H]2C [Example 138]	> 100 µg/mL	50 µg/mL (≈ 64.7 µM)	0.78 µg/mL (≈ 1.01 µM)	50 µg/mL (≈ 64.7 µM)	0.1 µg/mL (≈ 0.129 µM)	0.1 µg/mL (≈ 0.129 µM)	0.02 µg/mL (≈ 0.0259 µM)	0.39 µg/mL (≈ 0.505 µM)	> 100 µg/mL	50 µg/mL (≈ 64.7 µM)	0.39 µg/mL (≈ 0.505 µM)	0.39 µg/mL (≈ 0.505 µM)	50 µg/mL (≈ 64.7 µM)	0.01 µg/mL (≈ 0.0129 µM)	3.1 µg/mL (≈ 4.01 µM)	> 100 µg/mL	> 100 µg/mL	0.39 µg/mL (≈ 0.505 µM)	> 100 µg/mL	> 100 µg/mL	MIC [12]: > 100 µg/mL; MIC [13]: 0.39 µg/mL (≈ 0.505 µM); MIC [14]: > 100 µg/mL; MIC [15]: 0.39 µg/mL (≈ 0.505 µM); MIC (CANDIDA ALBICANS CCH 442): > 100 µg/mL; MIC [16]: 1.56 µg/mL (≈ 2.02 µM); MIC [17]: > 100 µg/mL; MIC [18]: > 100 µg/mL; MIC [19]: 0.02 µg/mL (≈ 0.0259 µM); MIC [20]: 0.39 µg/mL (≈ 0.505 µM); MIC [21]: > 100 µg/mL; MIC (PSEUDOMONAS CEPACIA 296I): 100 µg/mL (≈ 129 µM); MIC [22]: 0.78 µg/mL (≈ 1.01 µM)
